Legend:
[1] = molecular target: T1, h-NK1 receptors (Homo sapiens, UniProt P25103); test: Evaluation of NK1 antagonist transport efficiency to the central nervous system using a h-NK1 receptor binding assay (brain extract after i.v. dosing of rats); details: 5 min; compound extracted from brain of male SD rats 5 min after i.v. injection at the dose of 1 mg/kg; CHO cell membranes expressing h-NK1; read-out: inhibition rate of 125I-BH-Substance P binding to h-NK1 receptors
T1 construct: expressed in transfected cells; host or cells: CHO cells (permanent expression), crude cell membranes
T1 sequence (P25103 whole entry): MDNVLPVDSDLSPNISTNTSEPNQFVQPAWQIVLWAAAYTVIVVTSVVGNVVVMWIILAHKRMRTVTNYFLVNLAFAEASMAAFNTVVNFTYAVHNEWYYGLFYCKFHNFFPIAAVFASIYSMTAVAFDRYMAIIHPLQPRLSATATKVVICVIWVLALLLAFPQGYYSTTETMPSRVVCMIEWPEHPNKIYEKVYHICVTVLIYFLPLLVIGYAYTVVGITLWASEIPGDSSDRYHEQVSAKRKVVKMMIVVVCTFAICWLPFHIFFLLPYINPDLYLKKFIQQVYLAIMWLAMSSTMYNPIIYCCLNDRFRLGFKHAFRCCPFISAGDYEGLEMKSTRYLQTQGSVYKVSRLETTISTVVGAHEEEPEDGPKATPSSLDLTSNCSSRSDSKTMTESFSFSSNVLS
Procedure: A. Evaluation of NK1 Antagonist Transport Efficiency to the Cental Nervous System using a h-NK1 Receptor Binding Assay
(1) Administration of Test Compound and Extraction of the Compound from Brain
Male SD rats were given an i.v. injection of a solution containing a test compound (1 mg/kg). 5 Min later the animals were anesthetized by ether, bled and perfused through the aorta ascendens with 20 ml of saline. The brain was rapidly removed, weighed and homogenized in 4 vol. ice-cold distilled water by using Polytoron (KINEMATICA). To extract the test compound, 500 μl of the homogenate, 100 μl of methanol, 500 μl of 0.1 N NaOH and 4 ml of ethyl acetate were mixed by shaking for 10 min at room temperature. The organic phase (2.5 ml) was recovered by centrifugation at 3,000 rpm for 10 min, dried and dissolved in dimethyl sulfoxide.
(2) h-NK1 Receptor Binding Assay
(a) Crude CHO Cell Membrane Preparation
CHO cells permanently expressing h-NK1 receptors were harvested and homogenized with a Dounce homogenizer at 4° C. in a buffer (0.25 M sucrose, 25 mM Tris-HCl (pH 7.4), 10 mM MgCl2, 1 mM EDTA, 5 μg/ml p-APMSF). The homogenate was centrifuged (500×g, 10 min), and the pellet was resuspended in the same buffer, homogenized, and centrifuged. The two supernatants were combined and centrifuged (100,000×g, 1 hour). The crude cell membranes thus isolated were resuspended in a buffer (25 mM Tris-HCl (pH 7.4), 10 mM MgCl2, 1 mM. EDTA, 5 μg/ml p-APMSF) and stored at −80° C. until use.
(b) ^125I-BH-Substance P Binding to the Prepared Membrane
Cell membranes (6 μg/ml) were incubated with ^125I-BH-Substance P (0.1 nM) with or without the extracted compounds in 0.25 ml of a medium (50 mM Tris-HCl (pH 7.4), 5 mM MnCl2, 20 μg/ml chymostatin, 40 μg/ml bacitracin, 4 μg/ml leupeptin, 5 μg/ml p-APMSF, 200 μg/ml BSA) at 22° C. for 90 min. At the end of the incubation period, the contents were quickly filtered through a Blue Mat 11740 filter (pretreated with 0.1% polyethylenimine for 3 hours prior to use) by using SKATRON Cell Harvester. The filter was then washed with a washing buffer (50 mM Tris-HCl (pH 7.4), 5 mM MnCl2). The radioactivity was counted by using an auto gamma counter (Packard RIASTAR 5420A). All data presented are specific binding defined as that displaceable by 3 μM unlabeled Substance P.

SMILES	inhibition at 1 mg/kg [1] [%]	melting point
CC1(C)COCCN1CCN1CCN(C(=O)c2cc(C(F)(F)F)cc(C(F)(F)F)c2)[C@H](Cc2c[nH]c3ccccc23)C1.Cl.Cl [79-(1), (2R)-1-[3,5-Bis(trifluoromethyl)benzoyl]-4-[2-(3,3-dimethylmorpholino)ethyl]-2-[(1H-indol-3-yl)methyl]piperazine dihydrochloride]	> 80	247 to 258 °C
CC1(C)COCCN1CC#CCN1CCN(C(=O)c2cc(C(F)(F)F)cc(C(F)(F)F)c2)C(Cc2cc3ccccc3[nH]2)C1.Cl.Cl (stereo not shown) [89-(1), 1-[3,5-Bis(trifluoromethyl)benzoyl]-2-[(1H-indol-2-yl)methyl]-4-[4-(3,3-dimethylmorpholino)-2-butynyl]piperazine dihydrochloride]	> 80	185 °C
CN(C)c1cc(C(=O)N2CCN(CC#CCN3CCOCC3(C)C)C[C@H]2Cc2c[nH]c3ccccc23)cc(C(F)(F)F)c1.Cl.Cl [90-(2), (2R)-1-[3-(Dimethylamino)-5-(trifluoromethyl)benzoyl]-4-[4-(3,3-dimethylmorpholino)-2-butynyl]-2-[(1H-indol-3-yl)methyl]piperazine dihydrochloride]	> 80	210 to 225 °C
CC1(C)COCCN1CC#CCN1CCN(C(=O)c2cc([N+](=O)[O-])cc(C(F)(F)F)c2)[C@H](Cc2c[nH]c3ccccc23)C1.Cl.Cl [90-(3), (2R)-4-[4-(3,3-Dimethylmorpholino)-2-butynyl]-2-[(1H-indol-3-yl)methyl]-1-[3-nitro-5-(trifluoromethyl)benzoyl]piperazine dihydrochloride]	> 80	198 to 220 °C
CNc1cc(C(=O)N2CCN(CC#CCN3CCOCC3(C)C)C[C@H]2Cc2ccc(C)c(C)c2)cc(C(F)(F)F)c1.Cl.Cl [90-(4), (2R)-2-(3,4-Dimethylbenzyl)-4-[4-(3,3-dimethylmorpholino)-2-butynyl]-1-[3-(methylamino)-5-(trifluoromethyl)benzoyl]piperazine dihydrochloride]	> 80	195 to 205 °C
Cc1ccc(C[C@@H]2CN(CC#CCN3CCOCC3(C)C)CCN2C(=O)c2cc([N+](=O)[O-])cc(C(F)(F)F)c2)cc1C.Cl.Cl [90-(6), (2R)-2-(3,4-Dimethylbenzyl)-4-[4-(3,3-dimethylmorpholino)-2-butynyl]-1-[3-nitro-5-(trifluoromethyl)benzoyl]piperazine dihydrochloride]	> 80	157 to 200 °C
Cl.Cl.O=C(c1cc(C(F)(F)F)cc(C(F)(F)F)c1)N1CCN(C/C=C\c2cccnc2)C[C@H]1Cc1c[nH]c2ccccc12 [Example 5-(2), (2R)-1-[3,5-Bis(trifluoromethyl)benzoyl]-2-[(1H-indol-3-yl)methyl]-4-[(Z)-3-(3-pyridyl)-2-propenyl]piperazine dihydrochloride]	> 80	165 to 177 °C
Cc1ccc(C[C@@H]2CN(CC#CCN3CCOCC3)CCN2C(=O)c2cc(Cl)cc(Cl)c2)cc1C.Cl.Cl [Example 15, (2R)-1-(3,5-dichlorobenzoyl)-2-(3,4-dimethylbenzyl)-4-(4-morpholino-2-butynyl)piperazine dihydrochloride]	> 80	175 °C (dec.)
Cc1ccc(C[C@@H]2CN(CCCNN3CCOCC3)CCN2C(=O)c2cc(Cl)cc(Cl)c2)cc1C.Cl.Cl [Example 17, (2R)-1-(3,5-dichlorobenzoyl)-2-(3,4-dimethylbenzyl)-4-(N-morpholino-3-aminopropyl)piperazine dihydrochloride]	> 80	71 °C (dec.)

Continued, values first:

inhibition at 1 mg/kg [1] [%]	melting point	SMILES
> 80	190 to 210 °C	Cc1ccc(C[C@@H]2CN(CCN3CCOCC3(C)C)CCN2C(=O)c2cc(C(F)(F)F)cc(C(F)(F)F)c2)cc1C.Cl.Cl [79-(2), (2R)-1-[3,5-Bis(trifluoromethyl)benzoyl]-2-(3,4-dimethylbenzyl)-4-[2-(3,3-dimethylmorpholino)ethyl]piperazine dihydrochloride]
> 80	150 to 160 °C	Cc1ccc(C[C@@H]2CN(CCN3CCOC[C@@H]3CO)CCN2C(=O)c2cc(C(F)(F)F)cc(C(F)(F)F)c2)cc1C.Cl.Cl [80-(2), (2R)-1-[3,5-Bis(trifluoromethyl)benzoyl]-2-(3,4-dimethylbenzyl)-4-[2-((3S)-3-hydroxymethylmorpholino)ethyl]piperazine dihydrochloride]
> 80	90 to 100 °C	COC[C@H]1COCCN1CCN1CCN(C(=O)c2cc(C(F)(F)F)cc(C(F)(F)F)c2)[C@H](Cc2ccc(C)c(C)c2)C1.Cl.Cl [80-(4), (2R)-1-[3,5-Bis(trifluoromethyl)benzoyl]-2-(3,4-dimethylbenzyl)-4-[2-((3S)-3-methoxymethylmorpholino)ethyl]piperazine dihydrochloride]
> 80	55 to 60 °C	COC[C@H]1COCCN1CCCN1CCN(C(=O)c2cc(C(F)(F)F)cc(C(F)(F)F)c2)[C@H](Cc2ccc(C)c(C)c2)C1.Cl.Cl [80-(6), (2R)-1-[3,5-Bis(trifluoromethyl)benzoyl]-2-(3,4-dimethylbenzyl)-4-[3-((3S)-3-methoxymethylmorpholino)propyl]piperazine dihydrochloride]
> 80	145 to 155 °C	COCC1CN(CCCN2CCN(C(=O)c3cc(C(F)(F)F)cc(C(F)(F)F)c3)[C@H](Cc3ccc(C)c(C)c3)C2)CCO1.Cl (stereo partly drawn) [80-(7), (2R)-1-[3,5-Bis(trifluoromethyl)benzoyl]-2-(3,4-dimethylbenzyl)-4-[3-(2-methoxymethylmorpholino)propyl]piperazine hydrochloride]
> 80	145 to 155 °C	Cc1ccc(C[C@@H]2CN(CCN3CCOC[C@@H]3CF)CCN2C(=O)c2cc(C(F)(F)F)cc(C(F)(F)F)c2)cc1C.Cl.Cl [81-(1), (2R)-1-[3,5-Bis(trifluoromethyl)benzoyl]-2-(3,4-dimethylbenzyl)-4-[2-((3R)-3-fluoromethylmorpholino)ethyl]piperazine dihydrochloride]
> 80	60 to 70 °C	COCC1(C)COCCN1CCN1CCN(C(=O)c2cc(C(F)(F)F)cc(C(F)(F)F)c2)[C@H](Cc2ccc(C)c(C)c2)C1.Cl.Cl (stereo partly drawn) [81-(2), (2R)-1-[3,5-Bis(trifluoromethyl)benzoyl]-2-(3,4-dimethylbenzyl)-4-[2-(3-methoxymethyl-3-methylmorpholino)ethyl]piperazine dihydrochloride]
> 80	60 to 65 °C	CCOC[C@H]1COCCN1CCN1CCN(C(=O)c2cc(C(F)(F)F)cc(C(F)(F)F)c2)[C@H](Cc2ccc(C)c(C)c2)C1.Cl.Cl [81-(3), (2R)-1-[3,5-Bis(trifluoromethyl)benzoyl]-2-(3,4-dimethylbenzyl)-4-[2-((3S)-3-ethoxymethylmorpholino)ethyl]piperazine dihydrochloride]
> 80	90 to 100 °C	COC[C@@H]1COCCN1CCN1CCN(C(=O)c2cc(C(F)(F)F)cc(C(F)(F)F)c2)[C@H](Cc2ccc(C)c(C)c2)C1.Cl.Cl [81-(4), (2R)-1-[3,5-Bis(trifluoromethyl)benzoyl]-2-(3,4-dimethylbenzyl)-4-[2-((3R)-3-methoxymethylmorpholino)ethyl]piperazine dihydrochloride]
> 80	160 to 170 °C	COC[C@H]1CN(CCN2CCN(C(=O)c3cc(C(F)(F)F)cc(C(F)(F)F)c3)[C@H](Cc3ccc(C)c(C)c3)C2)CCO1.Cl.Cl [81-(5), (2R)-1-[3,5-Bis(trifluoromethyl)benzoyl]-2-(3,4-dimethylbenzyl)-4-[2-((2R)-2-methoxymethylmorpholino)ethyl]piperazine dihydrochloride]
> 80	91 °C (dec.)	Cc1ccc(C[C@@H]2CN(CCCc3cn(C)cn3)CCN2C(=O)c2cc(C(F)(F)F)cc(C(F)(F)F)c2)cc1C.Cl.Cl [Example 18, (2R)-1-[3,5-bis(trifluoromethyl)benzoyl]-2-(3,4-dimethylbenzyl)-4-[3-(1-methyl-1H-imidazol-4-yl)propyl]piperazine dihydrochloride]

Reference: patent US6924278B2, “Aroyl-piperazine derivatives, their preparation and their use as tachykinin antagonists” (Fujisawa Pharmaceutical Co., Ltd., priority 1997, dated 2005)
